From PubChem BioAssay AID248 (DTP/NCI, 2004)
Several values for one entry are separate records, joined by “and”; a condition that tells them apart may be missing. Equal entries are not always repeated. Toxic doses and inconclusive results are not listed. Cut-off read from the data, not from the text of the source: active = T/C of 150% or more; inactive = T/C below 125%.

Test system: L1210 leukemia ip in BDF1 mice, survival T/C
Test: NCI In Vivo Anticancer Drug Screen. Data for tumor model L1210 Leukemia (intraperitoneal) in B6D2F1 (BDF1) mice
Conditions: endpoint: mean survival time, higher = longer survival
Summary of the method: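 Ratio derived from survival: compound-dosed mice over vehicle-dosed mice, all bearing a transplantable tumor.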

[1] = dose: 100.0 mg/kg/injection, schedule: Q04DX003 (ip), vehicle: saline with Tween-80
[2] = dose: 200.0 mg/kg/injection, schedule: Q01DX009 (ip), vehicle: saline with Tween-80
[3] = dose: 200.0 mg/kg/injection, schedule: Q04DX003 (ip), vehicle: saline with Tween-80
[4] = dose: 400.0 mg/kg/injection, schedule: Q01DX009 (ip), vehicle: saline with Tween-80
[5] = dose: 400.0 mg/kg/injection, schedule: Q04DX003 (ip), vehicle: saline with Tween-80
[6] = dose: 50.0 mg/kg/injection, schedule: Q01DX001 (ip), vehicle: carboxymethylcellulose (CMC)
[7] = dose: 100.0 mg/kg/injection, schedule: Q01DX001 (ip), vehicle: carboxymethylcellulose (CMC)
[8] = dose: 200.0 mg/kg/injection, schedule: Q01DX001 (ip), vehicle: carboxymethylcellulose (CMC)
[9] = dose: 400.0 mg/kg/injection, schedule: Q01DX001 (ip), vehicle: carboxymethylcellulose (CMC)
[10] = dose: 100.0 mg/kg/injection, schedule: Q01DX009 (ip), vehicle: Klucel (hydroxypropylcellulose) (HPC)
[11] = dose: 200.0 mg/kg/injection, schedule: Q01DX009 (ip), vehicle: Klucel (hydroxypropylcellulose) (HPC)
[12] = dose: 50.0 mg/kg/injection, schedule: Q01DX009 (ip), vehicle: Klucel (hydroxypropylcellulose) (HPC)
[13] = dose: 50.0 mg/kg/injection, schedule: Q01DX001 (ip), vehicle: saline
[14] = dose: 100.0 mg/kg/injection, schedule: Q01DX001 (ip), vehicle: saline

Measured: T/C

c1ccc2c(c1)Cc1cc3ccccc3nc1-2
inactive: [1] 106 % of control | [2] 98 % of control | [3] 93 % of control | [4] 90 % of control | [5] 98 % of control

O=C(Oc1c(Cl)cc(S(=O)(=O)F)cc1Cl)c1ccc([N+](=O)[O-])cc1
inactive: dose: 100.0 mg/kg/injection, schedule: Q04DX002 (ip), vehicle: gum acacia 101 % of control | dose: 200.0 mg/kg/injection, schedule: Q04DX002 (ip), vehicle: gum acacia 99 % of control | dose: 400.0 mg/kg/injection, schedule: Q04DX002 (ip), vehicle: gum acacia 99 % of control

O=C(/C=C/c1ccccc1)Nc1ccc2ccccc2c1
inactive: dose: 100.0 mg/kg/injection, schedule: Q01DX009 (ip), vehicle: saline with Tween-80 107 % of control and 108 % of control | dose: 100.0 mg/kg/injection, schedule: Q04DX002 (ip), vehicle: saline with Tween-80 102 % of control and 114 % of control | [1] 92 % of control | [2] 96 % of control and 108 % of control | dose: 200.0 mg/kg/injection, schedule: Q04DX002 (ip), vehicle: saline with Tween-80 96 % of control and 102 % of control | [3] 100 % of control | [4] 94 % of control and 101 % of control | dose: 400.0 mg/kg/injection, schedule: Q04DX002 (ip), vehicle: saline with Tween-80 93 % of control and 107 % of control | [5] 101 % of control

c1cc[c]([Sn]([c]2ccccc2)([c]2ccccc2)[CH]2CCCCC2)cc1
inactive: dose: 100.0 mg/kg/injection, schedule: Q04DX003 (ip), vehicle: saline 89 % of control | dose: 200.0 mg/kg/injection, schedule: Q04DX003 (ip), vehicle: saline 93 % of control | dose: 400.0 mg/kg/injection, schedule: Q04DX003 (ip), vehicle: saline 89 % of control

OC(c1ccccc1)C1(O)C2CCC1C2 (stereo unspecified)
inactive: dose: 75.0 mg/kg/injection, schedule: Q04DX002 (ip), vehicle: Klucel (hydroxypropylcellulose) (HPC) 96 % of control | dose: 150.0 mg/kg/injection, schedule: Q04DX002 (ip), vehicle: Klucel (hydroxypropylcellulose) (HPC) 104 % of control | dose: 300.0 mg/kg/injection, schedule: Q04DX002 (ip), vehicle: Klucel (hydroxypropylcellulose) (HPC) 96 % of control

O=C(O)C1(Nc2ccc(-c3ccc(NC4(C(=O)O)CCCC4)cc3)cc2)CCCC1
inactive: [6] 90 % of control | [7] 90 % of control | [8] 88 % of control | [9] 88 % of control

CC(C)c1cccc(C(C)C)c1OCCOC(=O)Nc1ccc(F)cc1
inactive: [10] 101 % of control | [11] 117 % of control | dose: 400.0 mg/kg/injection, schedule: Q01DX009 (ip), vehicle: Klucel (hydroxypropylcellulose) (HPC) 109 % of control

N#CC(C(=O)c1ccccc1)c1cccc2ccccc12 (stereo unspecified)
inactive: [12] 101 % of control | [10] 95 % of control | dose: 100.0 mg/kg/injection, schedule: Q04DX003 (ip), vehicle: Klucel (hydroxypropylcellulose) (HPC) 95 % of control | [11] 103 % of control | dose: 200.0 mg/kg/injection, schedule: Q04DX003 (ip), vehicle: Klucel (hydroxypropylcellulose) (HPC) 91 % of control | dose: 400.0 mg/kg/injection, schedule: Q04DX003 (ip), vehicle: Klucel (hydroxypropylcellulose) (HPC) 91 % of control

Nn1c(=S)[nH]n2cnnc12
inactive: [7] 98 % of control | [8] 106 % of control | [9] 95 % of control

C=CCN(CC=C)CC=C
inactive: dose: 25.0 mg/kg/injection, schedule: Q01DX009 (ip), vehicle: saline 100 % of control | dose: 50.0 mg/kg/injection, schedule: Q01DX009 (ip), vehicle: saline 97 % of control | dose: 100.0 mg/kg/injection, schedule: Q01DX009 (ip), vehicle: saline 100 % of control

O=[N+]([O-])CC(Nc1ccccc1)c1ccccc1 (stereo unspecified)
inactive: dose: 12.5 mg/kg/injection, schedule: Q01DX009 (ip), vehicle: Klucel (hydroxypropylcellulose) (HPC) 108 % of control | dose: 25.0 mg/kg/injection, schedule: Q01DX009 (ip), vehicle: Klucel (hydroxypropylcellulose) (HPC) 100 % of control | dose: 50.0 mg/kg/injection, schedule: Q01DX001 (ip), vehicle: Klucel (hydroxypropylcellulose) (HPC) 96 % of control and 110 % of control | [6] 102 % of control | [12] 102 % of control | dose: 100.0 mg/kg/injection, schedule: Q01DX001 (ip), vehicle: Klucel (hydroxypropylcellulose) (HPC) 97 % of control and 98 % of control | [7] 102 % of control | dose: 200.0 mg/kg/injection, schedule: Q01DX001 (ip), vehicle: Klucel (hydroxypropylcellulose) (HPC) 102 % of control and 107 % of control | [8] 100 % of control | dose: 400.0 mg/kg/injection, schedule: Q01DX001 (ip), vehicle: Klucel (hydroxypropylcellulose) (HPC) 105 % of control | [9] 90 % of control

CN=C1C2CCC(C2)CC1(O)c1ccccc1 (stereo unspecified)
inactive: [13] 102 % of control | [14] 102 % of control

OCCNc1ccccc1
inactive: [14] 93 % of control | dose: 200.0 mg/kg/injection, schedule: Q01DX001 (ip), vehicle: saline 101 % of control

CC(C)(C)C1CCCC(=O)C1 (stereo unspecified)
inactive: [13] 101 % of control | [14] 89 % of control

COC1CC(OC2C(C)C(=O)OC(C)C(C)C(OC(C)=O)C(C)C(=O)C3(CO3)CC(C)C(OC3OC(C)CC(N(C)C)C3OC(C)=O)C2C)OC(C)C1OC(C)=O (stereo unspecified)
inactive: [7] 108 % of control | [8] 113 % of control | [9] 108 % of control

O=[N+]([O-])c1ccc(-n2ncc3cccnc32)c([N+](=O)[O-])c1
inactive: dose: 75.0 mg/kg/injection, schedule: Q01DX001 (ip), vehicle: other 94 % of control | dose: 150.0 mg/kg/injection, schedule: Q01DX001 (ip), vehicle: other 100 % of control | dose: 300.0 mg/kg/injection, schedule: Q01DX001 (ip), vehicle: other 90 % of control

CCCCC(=O)N/N=C\c1cc(Cl)ccc1[N+](=O)[O-]
inactive: [7] 96 % of control | [8] 91 % of control | [9] 96 % of control

COc1ccc2nc3c4ccccc4scc-3c2c1
inactive: [1] 92 % of control

CS(=O)(=O)c1nc2ccc([N+](=O)[O-])cc2s1
inactive: dose: 25.0 mg/kg/injection, schedule: Q04DX002 (ip), vehicle: saline 107 % of control | dose: 50.0 mg/kg/injection, schedule: Q04DX002 (ip), vehicle: saline 104 % of control | dose: 100.0 mg/kg/injection, schedule: Q04DX002 (ip), vehicle: saline 100 % of control

CC(=O)CC(=O)CCc1ccccc1.CC(=O)CC(=O)CCc1ccccc1.[Cu]
inactive: dose: 75.0 mg/kg/injection, schedule: Q01DX001 (ip), vehicle: carboxymethylcellulose (CMC) 91 % of control

COC(=O)CC[C@@H](C)[C@H]1CC[C@H]2[C@@H]3CC[C@@H]4C[C@H](O)CC[C@]4(C)[C@H]3CC[C@]12C
inactive: dose: 100.0 mg/kg/injection, schedule: Q01DX009 (sc), vehicle: olive oil, sesame oil, peanut oil 107 % of control | dose: 200.0 mg/kg/injection, schedule: Q01DX009 (sc), vehicle: olive oil, sesame oil, peanut oil 102 % of control | dose: 400.0 mg/kg/injection, schedule: Q01DX009 (sc), vehicle: olive oil, sesame oil, peanut oil 95 % of control

Cc1nc2nc[nH]c(=O)c2nc1C
inactive: dose: 16.0 mg/kg/injection, schedule: Q01DX Z (ip), vehicle: methylcellulose (MC) 92 % of control | dose: 31.0 mg/kg/injection, schedule: Q01DX Z (ip), vehicle: methylcellulose (MC) 89 % of control | dose: 62.0 mg/kg/injection, schedule: Q01DX Z (ip), vehicle: methylcellulose (MC) 103 % of control | dose: 125.0 mg/kg/injection, schedule: Q01DX Z (ip), vehicle: methylcellulose (MC) 93 % of control and 97 % of control | dose: 250.0 mg/kg/injection, schedule: Q01DX Z (ip), vehicle: methylcellulose (MC) 107 % of control

CCOC(=O)c1ccc(NCc2cccc([N+](=O)[O-])c2)cc1
inactive: dose: 100.0 mg/kg/injection, schedule: Q01DX001 (ip), vehicle: saline with Tween-80 103 % of control | dose: 200.0 mg/kg/injection, schedule: Q01DX001 (ip), vehicle: saline with Tween-80 90 % of control | dose: 400.0 mg/kg/injection, schedule: Q01DX001 (ip), vehicle: saline with Tween-80 88 % of control

O=[N+]([O-])c1cc([N+](=O)[O-])c(Br)cc1Cl
inactive: dose: 10.0 mg/kg/injection, schedule: Q04DX003 (ip), vehicle: Klucel (hydroxypropylcellulose) (HPC) 93 % of control | dose: 20.0 mg/kg/injection, schedule: Q04DX003 (ip), vehicle: Klucel (hydroxypropylcellulose) (HPC) 96 % of control
